Measurements taken from patent US10800741B2 (ANCUREALL PHARMACEUTICAL (SHANGHAI) CO., LTD., priority 2017, dated 2020).
Where two headings read alike, the source gives them in different places.

What was measured:
Assay in all cases: KINOMEscan in vitro binding to 468 labeled protein kinases
protein kinases [1] = target: T1, protein kinases (Homo sapiens, UniProt P04629); conditions: TRKA (NTRK1), read-out: Test compound/solvent control (%)
T1 construct: purchased Discovery X company (USA), KINOMEscan screening platform
How it was run: (§1)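 Competition binding across 468 labelled kinases on the KINOMEscan platform, compound tested at 1000 nM, 10 nM and 1 nM, duplicate samples. Result given as percentage of DMSO solvent control; lower percentage means stronger binding.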

protein kinases [2] = target: T2, protein kinases (Homo sapiens, UniProt P00519, H396P); conditions: read-out: Test compound/solvent control (%); for remaining binding at 0.001 µM: 1 nM; for remaining binding at 0.01 µM: 10 nM; for remaining binding at 1 µM: 1000 nM
T2 construct: purchased Discovery X company (USA), KINOMEscan screening platform
How it was run: as §1

protein kinases [3] = target: T3, protein kinases (Homo sapiens, UniProt P00533, T790M); conditions: EGFR(T790M)
T3 construct: purchased Discovery X company (USA), KINOMEscan screening platform
How it was run: as §1

protein kinases [4] = target: T4, protein kinases (Homo sapiens, UniProt P22607, G697C); conditions: FGFR3(G697C), read-out: Test compound/solvent control (%)
T4 construct: purchased Discovery X company (USA), KINOMEscan screening platform
How it was run: as §1

protein kinases [5] = target: T5, protein kinases (Homo sapiens, UniProt P00519, M351T); conditions: ABL1(M351T)-phosphorylated, read-out: Test compound/solvent control (%)
T5 construct: purchased Discovery X company (USA), KINOMEscan screening platform
How it was run: as §1

protein kinases [6] = target: T6, protein kinases (Homo sapiens, UniProt Q12866); conditions: MERTK, read-out: Test compound/solvent control (%)
T6 construct: purchased Discovery X company (USA), KINOMEscan screening platform
T6 sequence (Q12866 21-999): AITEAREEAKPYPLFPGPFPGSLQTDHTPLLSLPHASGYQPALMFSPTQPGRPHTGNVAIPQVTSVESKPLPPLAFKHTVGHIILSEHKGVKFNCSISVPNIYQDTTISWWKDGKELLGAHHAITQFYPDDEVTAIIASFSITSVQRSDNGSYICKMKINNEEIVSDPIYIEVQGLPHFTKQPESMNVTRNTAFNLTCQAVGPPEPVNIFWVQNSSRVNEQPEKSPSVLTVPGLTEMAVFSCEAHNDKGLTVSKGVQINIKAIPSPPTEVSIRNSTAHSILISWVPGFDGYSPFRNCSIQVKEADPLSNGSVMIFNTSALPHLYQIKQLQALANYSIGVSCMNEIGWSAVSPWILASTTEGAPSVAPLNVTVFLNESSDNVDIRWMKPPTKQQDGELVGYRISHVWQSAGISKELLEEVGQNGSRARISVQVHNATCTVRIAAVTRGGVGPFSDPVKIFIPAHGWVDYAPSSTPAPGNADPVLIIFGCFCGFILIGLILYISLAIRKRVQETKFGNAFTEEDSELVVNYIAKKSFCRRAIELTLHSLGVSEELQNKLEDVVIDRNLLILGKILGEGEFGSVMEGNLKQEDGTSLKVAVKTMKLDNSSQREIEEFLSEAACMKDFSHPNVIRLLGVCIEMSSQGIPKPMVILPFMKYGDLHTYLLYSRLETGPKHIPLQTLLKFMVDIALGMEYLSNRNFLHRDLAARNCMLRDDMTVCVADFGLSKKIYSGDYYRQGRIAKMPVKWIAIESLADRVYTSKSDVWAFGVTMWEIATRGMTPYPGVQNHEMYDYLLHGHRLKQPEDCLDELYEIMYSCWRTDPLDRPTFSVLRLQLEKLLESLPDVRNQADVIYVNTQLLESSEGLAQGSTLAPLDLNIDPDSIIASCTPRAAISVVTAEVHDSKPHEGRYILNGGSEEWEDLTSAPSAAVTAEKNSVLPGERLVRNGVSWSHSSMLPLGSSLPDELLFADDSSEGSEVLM
How it was run: as §1

protein kinases [7] = target: T7, protein kinases (Homo sapiens, UniProt P09619); conditions: PDGFRB, read-out: Test compound/solvent control (%)
T7 construct: purchased Discovery X company (USA), KINOMEscan screening platform
How it was run: as §1

protein kinases [8] = target: T8, protein kinases (Homo sapiens, UniProt P08922); conditions: ROS1, read-out: Test compound/solvent control (%)
T8 construct: purchased Discovery X company (USA), KINOMEscan screening platform
How it was run: as §1

protein kinases [9] = target: T9, protein kinases (Homo sapiens, UniProt P00519, Y253F); conditions: ABL1(Y253F)-phosphorylated, read-out: Test compound/solvent control (%)
T9 construct: purchased Discovery X company (USA), KINOMEscan screening platform
How it was run: as §1

protein kinases [10] = target: T10, protein kinases (Homo sapiens, UniProt P22607); conditions: FGFR3, read-out: Test compound/solvent control (%)
T10 construct: purchased Discovery X company (USA), KINOMEscan screening platform
How it was run: as §1

protein kinases [11] = target: T11, protein kinases (Homo sapiens, UniProt P07949); conditions: RET, read-out: Test compound/solvent control (%)
T11 construct: purchased Discovery X company (USA), KINOMEscan screening platform
How it was run: as §1

T7 sequence (P09619 33-1106): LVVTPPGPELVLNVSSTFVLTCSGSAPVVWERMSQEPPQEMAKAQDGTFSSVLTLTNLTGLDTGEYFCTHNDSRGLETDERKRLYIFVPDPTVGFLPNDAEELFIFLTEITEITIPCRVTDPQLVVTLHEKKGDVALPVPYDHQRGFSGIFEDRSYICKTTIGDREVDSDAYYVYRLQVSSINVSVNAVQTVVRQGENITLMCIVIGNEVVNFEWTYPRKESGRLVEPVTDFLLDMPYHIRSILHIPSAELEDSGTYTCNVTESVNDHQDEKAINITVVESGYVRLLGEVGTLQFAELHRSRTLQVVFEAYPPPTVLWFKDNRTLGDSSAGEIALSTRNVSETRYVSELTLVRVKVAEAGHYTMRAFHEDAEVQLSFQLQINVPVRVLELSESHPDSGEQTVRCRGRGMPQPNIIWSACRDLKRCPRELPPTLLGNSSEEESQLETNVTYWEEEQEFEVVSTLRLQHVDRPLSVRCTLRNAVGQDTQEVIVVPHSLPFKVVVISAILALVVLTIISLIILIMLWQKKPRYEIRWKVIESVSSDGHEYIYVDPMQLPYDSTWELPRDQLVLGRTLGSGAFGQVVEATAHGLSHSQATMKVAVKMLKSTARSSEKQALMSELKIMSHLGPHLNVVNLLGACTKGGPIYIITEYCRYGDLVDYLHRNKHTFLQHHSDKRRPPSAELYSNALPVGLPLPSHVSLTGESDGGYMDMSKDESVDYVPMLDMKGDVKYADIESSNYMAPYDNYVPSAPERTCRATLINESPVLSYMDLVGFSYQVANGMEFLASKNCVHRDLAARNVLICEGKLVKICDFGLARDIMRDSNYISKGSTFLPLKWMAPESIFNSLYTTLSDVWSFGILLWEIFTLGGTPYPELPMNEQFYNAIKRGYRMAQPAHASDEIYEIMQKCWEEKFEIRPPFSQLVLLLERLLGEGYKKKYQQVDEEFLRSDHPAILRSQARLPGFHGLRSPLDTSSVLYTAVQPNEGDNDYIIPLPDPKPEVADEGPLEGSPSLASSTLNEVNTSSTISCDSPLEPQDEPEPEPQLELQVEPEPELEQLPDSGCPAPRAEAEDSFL
T8 sequence (P08922 28-2347): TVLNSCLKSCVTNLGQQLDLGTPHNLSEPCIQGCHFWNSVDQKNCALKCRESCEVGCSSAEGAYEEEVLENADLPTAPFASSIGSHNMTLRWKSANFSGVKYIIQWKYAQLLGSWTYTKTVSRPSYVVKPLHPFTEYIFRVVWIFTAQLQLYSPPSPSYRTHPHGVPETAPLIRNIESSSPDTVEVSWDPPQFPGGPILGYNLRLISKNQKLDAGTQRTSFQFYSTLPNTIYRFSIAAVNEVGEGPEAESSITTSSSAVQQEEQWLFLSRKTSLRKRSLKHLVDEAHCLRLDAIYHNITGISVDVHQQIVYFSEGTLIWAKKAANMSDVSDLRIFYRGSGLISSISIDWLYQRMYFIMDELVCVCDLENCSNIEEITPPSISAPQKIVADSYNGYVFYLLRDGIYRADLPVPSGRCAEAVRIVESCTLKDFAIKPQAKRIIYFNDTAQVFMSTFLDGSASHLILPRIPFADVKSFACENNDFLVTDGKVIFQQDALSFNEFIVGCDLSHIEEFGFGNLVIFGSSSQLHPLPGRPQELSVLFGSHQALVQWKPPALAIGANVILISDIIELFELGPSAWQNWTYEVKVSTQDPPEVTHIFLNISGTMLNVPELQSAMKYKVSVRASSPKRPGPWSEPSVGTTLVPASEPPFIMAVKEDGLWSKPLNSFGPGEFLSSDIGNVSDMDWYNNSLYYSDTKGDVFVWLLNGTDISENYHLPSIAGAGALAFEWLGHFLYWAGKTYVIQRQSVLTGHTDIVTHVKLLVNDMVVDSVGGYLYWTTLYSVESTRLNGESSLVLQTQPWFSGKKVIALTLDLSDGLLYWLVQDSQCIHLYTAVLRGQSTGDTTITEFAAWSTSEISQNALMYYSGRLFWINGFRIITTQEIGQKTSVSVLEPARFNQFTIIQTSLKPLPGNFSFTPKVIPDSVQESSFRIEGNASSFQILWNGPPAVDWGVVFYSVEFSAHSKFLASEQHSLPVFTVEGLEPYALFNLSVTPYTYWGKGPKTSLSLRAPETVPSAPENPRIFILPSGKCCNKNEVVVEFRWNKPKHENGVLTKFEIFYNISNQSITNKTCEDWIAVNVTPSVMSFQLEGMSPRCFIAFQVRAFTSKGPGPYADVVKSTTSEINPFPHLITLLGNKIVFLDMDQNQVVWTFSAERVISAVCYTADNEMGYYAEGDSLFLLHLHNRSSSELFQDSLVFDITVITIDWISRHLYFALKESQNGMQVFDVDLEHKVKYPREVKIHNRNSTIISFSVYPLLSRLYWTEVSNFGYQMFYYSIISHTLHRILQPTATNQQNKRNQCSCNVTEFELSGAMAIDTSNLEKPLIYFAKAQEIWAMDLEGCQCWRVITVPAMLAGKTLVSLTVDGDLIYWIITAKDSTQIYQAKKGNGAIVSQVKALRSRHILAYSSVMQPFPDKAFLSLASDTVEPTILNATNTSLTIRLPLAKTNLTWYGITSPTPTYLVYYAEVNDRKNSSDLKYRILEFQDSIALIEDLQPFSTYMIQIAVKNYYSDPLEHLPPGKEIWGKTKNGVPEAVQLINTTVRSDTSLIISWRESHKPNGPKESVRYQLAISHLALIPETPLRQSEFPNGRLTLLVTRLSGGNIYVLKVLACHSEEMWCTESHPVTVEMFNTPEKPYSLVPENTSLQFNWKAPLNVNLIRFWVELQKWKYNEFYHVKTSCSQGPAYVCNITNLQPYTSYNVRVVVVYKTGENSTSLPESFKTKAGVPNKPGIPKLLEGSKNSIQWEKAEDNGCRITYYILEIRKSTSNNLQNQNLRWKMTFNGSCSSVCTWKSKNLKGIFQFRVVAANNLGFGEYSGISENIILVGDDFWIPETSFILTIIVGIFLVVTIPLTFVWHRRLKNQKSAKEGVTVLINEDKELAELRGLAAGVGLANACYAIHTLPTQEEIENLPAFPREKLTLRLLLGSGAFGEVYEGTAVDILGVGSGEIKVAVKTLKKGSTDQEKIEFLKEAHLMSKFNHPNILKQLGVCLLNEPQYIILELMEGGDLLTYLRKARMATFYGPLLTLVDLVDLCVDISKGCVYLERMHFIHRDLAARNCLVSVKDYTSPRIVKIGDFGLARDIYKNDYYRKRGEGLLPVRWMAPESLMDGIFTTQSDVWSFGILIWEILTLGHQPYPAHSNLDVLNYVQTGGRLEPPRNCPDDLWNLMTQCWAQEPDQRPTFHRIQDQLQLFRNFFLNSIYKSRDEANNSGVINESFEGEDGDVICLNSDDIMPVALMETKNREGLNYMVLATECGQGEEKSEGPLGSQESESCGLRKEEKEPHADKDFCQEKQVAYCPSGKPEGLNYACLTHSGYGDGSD
T3 sequence (P00533 25-1210 T790M): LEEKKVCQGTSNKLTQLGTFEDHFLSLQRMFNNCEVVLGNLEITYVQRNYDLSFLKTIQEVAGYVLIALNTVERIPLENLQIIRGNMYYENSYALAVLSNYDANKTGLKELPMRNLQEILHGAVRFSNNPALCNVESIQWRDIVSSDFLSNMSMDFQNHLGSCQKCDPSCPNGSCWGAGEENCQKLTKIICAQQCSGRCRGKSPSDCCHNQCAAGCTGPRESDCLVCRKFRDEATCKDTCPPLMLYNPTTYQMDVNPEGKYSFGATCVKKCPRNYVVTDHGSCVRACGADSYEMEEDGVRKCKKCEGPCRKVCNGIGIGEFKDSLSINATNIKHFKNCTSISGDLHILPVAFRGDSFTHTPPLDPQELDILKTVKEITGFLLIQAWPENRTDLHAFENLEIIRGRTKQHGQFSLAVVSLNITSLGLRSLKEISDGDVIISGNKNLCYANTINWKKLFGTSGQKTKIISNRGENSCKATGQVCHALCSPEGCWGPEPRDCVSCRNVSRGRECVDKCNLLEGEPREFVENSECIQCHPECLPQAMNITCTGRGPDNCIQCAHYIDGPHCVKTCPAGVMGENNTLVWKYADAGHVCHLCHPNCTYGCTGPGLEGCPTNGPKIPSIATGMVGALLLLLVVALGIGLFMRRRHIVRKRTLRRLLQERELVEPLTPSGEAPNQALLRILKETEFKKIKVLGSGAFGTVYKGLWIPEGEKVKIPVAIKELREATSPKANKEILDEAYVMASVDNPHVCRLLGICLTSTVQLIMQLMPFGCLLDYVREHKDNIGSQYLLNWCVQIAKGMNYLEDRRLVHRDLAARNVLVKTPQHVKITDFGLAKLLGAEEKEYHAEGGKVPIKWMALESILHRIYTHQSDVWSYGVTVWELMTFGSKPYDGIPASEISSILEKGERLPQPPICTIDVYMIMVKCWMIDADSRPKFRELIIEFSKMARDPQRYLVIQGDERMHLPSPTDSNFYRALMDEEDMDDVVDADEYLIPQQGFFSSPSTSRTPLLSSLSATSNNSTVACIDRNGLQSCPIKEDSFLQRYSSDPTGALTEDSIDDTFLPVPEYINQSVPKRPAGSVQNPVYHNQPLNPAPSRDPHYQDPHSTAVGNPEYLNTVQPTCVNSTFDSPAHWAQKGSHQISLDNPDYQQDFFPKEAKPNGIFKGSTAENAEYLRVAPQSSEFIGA

remaining binding at 0.001 µM (protein kinases [1]; 1 nM): 48% | remaining binding at 0.01 µM (protein kinases [1]; 10 nM): 5.5% | remaining binding at 1 µM (protein kinases [1]; 1000 nM): 0.2% | remaining binding at 0.001 µM (protein kinases [2]; ABL1(H396P)-phosphorylated): 55% | remaining binding at 0.01 µM (protein kinases [2]; ABL1(H396P)-phosphorylated): 9.7% | remaining binding at 1 µM (protein kinases [2]; ABL1(H396P)-phosphorylated): 0% | remaining binding at 0.001 µM (protein kinases [2]; ABL1(H396P)-unphosphorylated): 27% | remaining binding at 0.01 µM (protein kinases [2]; ABL1(H396P)-unphosphorylated): 1.8% | remaining binding at 1 µM (protein kinases [2]; ABL1(H396P)-unphosphorylated): 0.05% | Test compound/solvent control (%) (protein kinases [3]; 1 nM): 83% | Test compound/solvent control (%) (protein kinases [3]; 10 nM): 19% | Test compound/solvent control (%) (protein kinases [3]; 1000 nM): 0.2% | remaining binding at 0.001 µM (protein kinases [4]; 1 nM): 81% | remaining binding at 0.01 µM (protein kinases [4]; 10 nM): 54% | remaining binding at 1 µM (protein kinases [4]; 1000 nM): 0.05% | remaining binding at 0.001 µM (protein kinases [5]; 1 nM): 100% | remaining binding at 0.01 µM (protein kinases [5]; 10 nM): 22% | remaining binding at 1 µM (protein kinases [5]; 1000 nM): 0.65% | remaining binding at 0.001 µM (protein kinases [6]; 1 nM): 57% | remaining binding at 0.01 µM (protein kinases [6]; 10 nM): 4.1% | remaining binding at 1 µM (protein kinases [6]; 1000 nM): 0.65% | remaining binding at 0.001 µM (protein kinases [7]; 1 nM): 81% | remaining binding at 0.01 µM (protein kinases [7]; 10 nM): 6.2% | remaining binding at 1 µM (protein kinases [7]; 1000 nM): 0% | remaining binding at 0.001 µM (protein kinases [8]; 1 nM): 85% | remaining binding at 0.01 µM (protein kinases [8]; 10 nM): 17% | remaining binding at 1 µM (protein kinases [8]; 1000 nM): 4.6% | remaining binding at 0.001 µM (protein kinases [9]; 1 nM): 80% | remaining binding at 0.01 µM (protein kinases [9]; 10 nM): 11% | remaining binding at 1 µM (protein kinases [9]; 1000 nM): 0.1% | remaining binding at 0.001 µM (protein kinases [10]; 1 nM): 100% | remaining binding at 0.01 µM (protein kinases [10]; 10 nM): 82% | remaining binding at 1 µM (protein kinases [10]; 1000 nM): 0.2% | remaining binding at 0.001 µM (protein kinases [11]; 1 nM): 85% | remaining binding at 0.01 µM (protein kinases [11]; 10 nM): 17% | remaining binding at 1 µM (protein kinases [11]; 1000 nM): 0%
SMILES: COCCOc1cc2nccc(Oc3ccc(NC(=O)Nc4cc(C(C)(C)C)n[nH]4)c(Cl)c3)c2cc1NC(C)=O [Compound 66, N-[4-{4-[3-(5-tert-butyl-2H-pyrazol-3-yl)-ureido]-3-chloro-phenoxy}-7-(2-methoxy-ethoxy)-quinolin-6-yl]-acetamide]
